# Assay results from publication PMC7485941 (Clinical and Translational Science, 2020).
# Entries after “also recorded” stand apart in the source; their conditions may differ.
# Key:
# healthy subjects [1] = assay: Concentration-QTc; format: in vivo, human; conditions: for Predicted (90% CI) ΔΔQTcF at geometric mean peak concentration: PK/QTc population
# healthy subjects [2] = assay: 12-lead ECG by time-point and categorical outlier analysis in the TQT study; format: in vivo, human
# healthy subjects [3] = assay: Safety and tolerability; format: in vivo, human; conditions: for overall percentage of TEAEs: part B
# QTc interval = conditions: therapeutic and supratherapeutic concentrations; cited from earlier work
# hERG channels = assay: In vitro hERG ion channel assay; format: cell-based, human; conditions: 160 mg twice daily
# [4] = Plasma pharmacokinetics in the TQT study; conditions: for Cmax: Geometric mean Cmax (90% CI), PK/QTc population
# [5] = cited from earlier work
smiles,measurement,setting,value
"COc1c(N2C[C@@H]3CCCN[C@@H]3C2)c(F)cc2c(=O)c(C(=O)O)cn(C3CC3)c12 [Moxifloxacin, moxifloxacin, reference compound]",estimated population slope of the C-QTc relationship,healthy subjects [1]; moxifloxacin,0.005 msec per ng/mL
same,intercept of the C-QTc relationship,healthy subjects [1]; moxifloxacin,3.1 ms
same,"peak effect, mean ΔΔQTcF","healthy subjects [2]; moxifloxacin 400 mg, at 2.5 hours postdose",12.9 ms
same,mean ΔΔQTcF,"healthy subjects [2]; moxifloxacin 400 mg, between 1 and 4 hours postdose",above 10 msec
same,overall percentage of TEAEs,healthy subjects [3]; moxifloxacin 400 mg,22.2%
CC#CC(=O)N1CCC[C@H]1c1nc(-c2ccc(C(=O)Nc3ccccn3)cc2)c2c(N)nccn12 [acalabrutinib],effect on QTc interval,QTc interval,not to prolong the QTc interval
C=CC(=O)N1CCC([C@@H]2CCNc3c(C(N)=O)c(-c4ccc(Oc5ccccc5)cc4)nn32)CC1 [Zanubrutinib],Predicted (90% CI) ΔΔQTcF at geometric mean peak concentration,"healthy subjects [1]; 160 mg, n = 27",−3.16 (−4.51 to −1.81) msec
same,Predicted (90% CI) ΔΔQTcF at geometric mean peak concentration,"healthy subjects [1]; 480 mg, n = 28",−3.38 (−4.86 to −1.89) msec
same,"exposure margin, hERG IC50 over clinical steady-state unbound Cmax",hERG channels,~ 217 fold
same,"Mean placebo-corrected change from baseline heart rate (ΔΔHR), magnitude (±)","healthy subjects [2]; all postdose time points, 160 and 480 mg",< 5 bpm
same,Mean ΔΔPR,healthy subjects [2]; all time points after dosing with zanubrutinib,< 5 ms
same,upper bound of the 90% CI of ΔΔQTcF,"healthy subjects [2]; any postdose time point, both zanubrutinib doses",≤ 1.2 ms
same,participants with HR outlier values,healthy subjects [2]; categorical outlier analysis,no participant with HR outlier values
same,participants with outlier QTcF values (> 450 msec),"healthy subjects [2]; categorical outlier analysis, zanubrutinib 160 and 480 mg",No participants had outlier QTcF values; also recorded: no participant had outlier values
same,participants with outlier ΔQTcF values (> 30 msec),"healthy subjects [2]; categorical outlier analysis, zanubrutinib groups",No participant had outlier ΔQTcF values
same,effect on QTc interval,healthy subjects [2]; single 160-mg or 480-mg dose,did not prolong the QTc interval
same,highest observed plasma concentration in the TQT study,[4]; concentration range included in C-QTc modeling,≈ 800 ng/mL
same,Cmax,"[4]; human, in vivo, 160 mg, n = 27",215 ng/mL
same,Cmax,"[4]; human, in vivo, 480 mg, n = 28",401 ng/mL
same,half-life,"[4]; human, in vivo, 480 mg, mean t ½, 480-mg dose, range over part A and part B",8.1 to 11 h
same,Tmax,"[4]; human, in vivo, 480 mg, median Tmax, range over part A and part B, 160 and 480 mg, postdose",1.5 to 2.8 h
same,mean Cmax,"[5]; 160 mg, patients with B-cell malignancy",346 ng/mL
same,mean terminal elimination half-life (t ½),[5]; oral administration,2 to 4 h
same,clinical steady-state unbound Cmax,"[5]; recommended phase III dose of 160 mg twice daily, no reference given",42 nM
same,SAEs or grade 3 or higher AEs related to administration,"healthy subjects [3]; part A, 480 mg single dose, n = 6",no SAEs or grade 3 or higher AEs
same,overall percentage of TEAEs,healthy subjects [3]; zanubrutinib 160 mg,10.0%
same,overall percentage of TEAEs,healthy subjects [3]; zanubrutinib 480 mg,13.3%
